The results in this text go back to article PMC7837296, “A novel LysR‐type regulator negatively affects biosynthesis of the immunosuppressant brasilicardin” (Engineering in Life Sciences, 2020).

Test [1] concerns the target T1, LysRNt (LysRNtHis6) (Nocardia terpenica, UniProt A0A164MN72).
T1 construct: gene AWN90_33365; full length, C-terminal His6 tag kept (pET-21a(+)lysRNt), E. coli Rosetta 2(DE3), Talon column; only monomer seen; re-annotated start (not the N-terminally extended lysRlnNt)
T1 sequence (A0A164MN72 1-303): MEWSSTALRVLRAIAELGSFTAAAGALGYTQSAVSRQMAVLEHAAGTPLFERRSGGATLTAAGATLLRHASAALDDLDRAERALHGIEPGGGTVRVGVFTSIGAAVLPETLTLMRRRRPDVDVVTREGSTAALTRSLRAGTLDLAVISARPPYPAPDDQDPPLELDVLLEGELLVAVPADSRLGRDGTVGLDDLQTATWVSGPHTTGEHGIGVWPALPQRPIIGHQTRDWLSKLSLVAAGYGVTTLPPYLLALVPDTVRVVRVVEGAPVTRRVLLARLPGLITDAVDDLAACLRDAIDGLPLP
Nature of the test: EMSA with […]-labelled bra12p DNA. The format is binding. To be noted: 500 nM protein, PBS, 1% ethanol. On the technique in general: Mobility shift assays separate free from complexed probe on a gel.

The target of test [2] is T1, LysRNt (LysRNtHis6). Briefly: fluorescence thermal shift, SYPRO Orange. To be noted: read-out: dTmD at 0.6 mM. In kind it is binding.

In the case of `O=C(O)c1ccccc1O` [compound 4, salicylic acid], in test [1] (compound lowers DNA binding), the “% DNA-protein complex remaining at 1 mM” value came out at 47%. For the same compound, in test [2], the ΔTm at 600 µM was found to be 0.74 °C.
As for `O=C(O)c1cccc(O)c1` [compound 5, 3-hydroxybenzoic acid], the “% DNA-protein complex remaining at 1 mM” value in test [1] (weak effect) is on record as 86%. The ΔTm at 600 µM in test [2] is 0.17 °C.
The matching figures for `O=C(O)c1ccccc1` [compound 2, sodium benzoate]: 84% and 0.19 °C.
